Laboratory results: patent US10208089B2, “Modulation of complement activity” (priority 2014, dated 2019)
Entries after “also recorded” stand apart in the source; their conditions may differ. Like-named read-outs stand apart in the source and are kept apart here. Starred links: 1 amine or outer side, 2 acyl side, 3 side chain; linkers in the order of their positions; H or OH if unused. Positions of bridges follow the written chain, without caps; N, C: chain ends. Non-standard residues stand in square brackets, D forms with d. Residues, ends and D or L forms follow the SMILES beside them. Trp(7-aza) = N[C@@H](Cc1c[nH]c2ncccc12)C(=O)O; mXylylene = c1cc(C[*:1])cc(C[*:2])c1; pXylylene = c1cc(C[*:2])ccc1C[*:1]; Phg = N[C@H](C(=O)O)c1ccccc1; Tle = CC(C)(C)[C@H](N)C(=O)O; NMeS = CN[C@@H](CO)C(=O)O; Nva = CCC[C@H](N)C(=O)O

What was measured:
C5 [1] = molecular target: T1, C5 (Homo sapiens, UniProt P01031); experiment: Competitive fluorescence polarization assay with probe R3076; format: binding; design: purchased Complement Technology, Tyler, Tex
T1 sequence (P01031 19-1676): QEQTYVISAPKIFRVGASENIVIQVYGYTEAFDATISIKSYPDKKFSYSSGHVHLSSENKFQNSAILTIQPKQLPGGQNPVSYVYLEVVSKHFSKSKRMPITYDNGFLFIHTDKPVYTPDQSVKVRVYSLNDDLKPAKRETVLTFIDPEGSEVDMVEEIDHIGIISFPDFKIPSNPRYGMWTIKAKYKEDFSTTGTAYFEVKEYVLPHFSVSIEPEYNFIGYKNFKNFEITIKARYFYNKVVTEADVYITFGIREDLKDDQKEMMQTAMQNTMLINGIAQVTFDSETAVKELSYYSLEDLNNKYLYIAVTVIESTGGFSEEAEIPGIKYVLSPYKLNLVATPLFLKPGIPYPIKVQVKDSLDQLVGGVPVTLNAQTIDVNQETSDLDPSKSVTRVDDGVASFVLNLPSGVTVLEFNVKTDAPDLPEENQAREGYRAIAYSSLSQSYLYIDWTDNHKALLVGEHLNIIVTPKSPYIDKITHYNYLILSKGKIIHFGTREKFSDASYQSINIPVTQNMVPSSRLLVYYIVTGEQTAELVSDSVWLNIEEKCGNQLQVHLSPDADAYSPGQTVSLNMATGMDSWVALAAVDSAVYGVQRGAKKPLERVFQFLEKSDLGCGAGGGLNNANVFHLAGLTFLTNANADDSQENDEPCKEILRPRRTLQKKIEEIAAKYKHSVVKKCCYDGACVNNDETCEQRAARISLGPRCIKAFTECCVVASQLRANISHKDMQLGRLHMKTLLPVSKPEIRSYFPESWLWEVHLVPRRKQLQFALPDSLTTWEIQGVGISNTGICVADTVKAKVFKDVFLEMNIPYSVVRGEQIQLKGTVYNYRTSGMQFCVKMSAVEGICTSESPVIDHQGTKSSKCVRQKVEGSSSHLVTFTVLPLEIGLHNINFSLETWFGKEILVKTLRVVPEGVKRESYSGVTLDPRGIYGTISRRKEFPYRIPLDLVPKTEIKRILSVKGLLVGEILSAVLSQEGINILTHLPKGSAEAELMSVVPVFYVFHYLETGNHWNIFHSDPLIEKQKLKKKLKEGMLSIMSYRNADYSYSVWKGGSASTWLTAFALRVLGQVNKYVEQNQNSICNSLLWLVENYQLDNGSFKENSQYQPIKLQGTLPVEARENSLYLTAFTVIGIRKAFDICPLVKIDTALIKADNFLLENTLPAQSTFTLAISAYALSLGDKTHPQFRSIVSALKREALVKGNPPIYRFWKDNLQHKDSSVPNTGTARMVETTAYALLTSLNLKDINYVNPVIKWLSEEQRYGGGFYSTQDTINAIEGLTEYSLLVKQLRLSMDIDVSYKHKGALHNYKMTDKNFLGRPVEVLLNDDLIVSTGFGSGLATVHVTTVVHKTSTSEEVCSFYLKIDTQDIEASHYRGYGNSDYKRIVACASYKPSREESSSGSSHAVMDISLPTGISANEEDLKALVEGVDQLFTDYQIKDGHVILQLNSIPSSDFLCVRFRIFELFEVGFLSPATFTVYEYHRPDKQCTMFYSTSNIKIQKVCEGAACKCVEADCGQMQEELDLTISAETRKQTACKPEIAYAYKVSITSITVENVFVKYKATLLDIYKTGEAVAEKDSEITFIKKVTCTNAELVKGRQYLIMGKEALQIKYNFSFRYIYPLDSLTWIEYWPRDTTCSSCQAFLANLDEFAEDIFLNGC
Protocol: FP allows binding events to be measured in a homogenous solution.
Polarization was measured over time, until binding reached equilibrium. KD was determined using Graphpad Prism (using “Saturating Binding Curves, One Site—Specific Binding With Hill Slope” as the curve fit to determine KD).
10 μl of this working stock was then added to each well in the assay plate. The assay plate was incubated at room temperature, protected from light, for 20 minutes to allow binding to reach equilibrium.
Test articles listed in Table 7 were subsequently diluted in DMSO then assay buffer, comprising 10 2-fold dilutions and were then added to the assay plate in triplicate, rapidly. The assay plate was then incubated in the Paradigm (Molecular Devices, Sunnyvale, Calif.) plate reader for 60 minutes at 25° C.
After incubation for 60 minutes, the plate was read using the Paradigm FP protocol (Molecular Devices, Sunnyvale, Calif.) and raw polarization values were imported into Graphpad Prism.

C5 [2] = molecular target: T1, C5; experiment: Human hemolysis assay (RBC lysis assay using complete human sera); format: cell-based; design: with complete human sera (Complement Technology, Tyler Tex.) and polypeptides; tissue Complement Technology, Tyler Tex; host or cells: complete human serum; conditions: inhibition of lysis of antibody-sensitized sheep erythrocytes, complete human sera
[3] = Compound stability in human plasma; format: in vitro ADME
Protocol: Compounds were assayed for stability in human plasma under the following conditions. Human plasma was obtained from Bioreclamation (Westbury, N.Y.) and collected in sodium heparin. Plasma was adjusted to pH 7.4. DMSO stocks at 10 mM concentration were prepared for the test compounds. Aliquots of the DMSO solutions were dosed into 1 mL of plasma, which had been pre-warmed to 37° C., at a final test compound concentration of 10 μM. The vials were kept in a benchtop THERMOMIXER® (Eppendorf, Hauppauge, N.Y.) for the duration of the experiment. Aliquots (100 μL) were taken at each timepoint and added to a 96-well plate that had been pre-filled with 300 μL of an acetonitrile solution containing mixture of the internal standards (metoprolol, propranolol and warfarin each at 500 ng/mL). […] Aliquots of the supernatant were removed and analyzed by LC-HRAMS.

rat C5 = molecular target: T2, rat C5 (Rattus norvegicus, UniProt P08650); experiment: Ex vivo hemolysis assays in the rat study
T2 construct: from tissue; host or cells: plasma of dosed male rats
T2 sequence (P08650 19-1681): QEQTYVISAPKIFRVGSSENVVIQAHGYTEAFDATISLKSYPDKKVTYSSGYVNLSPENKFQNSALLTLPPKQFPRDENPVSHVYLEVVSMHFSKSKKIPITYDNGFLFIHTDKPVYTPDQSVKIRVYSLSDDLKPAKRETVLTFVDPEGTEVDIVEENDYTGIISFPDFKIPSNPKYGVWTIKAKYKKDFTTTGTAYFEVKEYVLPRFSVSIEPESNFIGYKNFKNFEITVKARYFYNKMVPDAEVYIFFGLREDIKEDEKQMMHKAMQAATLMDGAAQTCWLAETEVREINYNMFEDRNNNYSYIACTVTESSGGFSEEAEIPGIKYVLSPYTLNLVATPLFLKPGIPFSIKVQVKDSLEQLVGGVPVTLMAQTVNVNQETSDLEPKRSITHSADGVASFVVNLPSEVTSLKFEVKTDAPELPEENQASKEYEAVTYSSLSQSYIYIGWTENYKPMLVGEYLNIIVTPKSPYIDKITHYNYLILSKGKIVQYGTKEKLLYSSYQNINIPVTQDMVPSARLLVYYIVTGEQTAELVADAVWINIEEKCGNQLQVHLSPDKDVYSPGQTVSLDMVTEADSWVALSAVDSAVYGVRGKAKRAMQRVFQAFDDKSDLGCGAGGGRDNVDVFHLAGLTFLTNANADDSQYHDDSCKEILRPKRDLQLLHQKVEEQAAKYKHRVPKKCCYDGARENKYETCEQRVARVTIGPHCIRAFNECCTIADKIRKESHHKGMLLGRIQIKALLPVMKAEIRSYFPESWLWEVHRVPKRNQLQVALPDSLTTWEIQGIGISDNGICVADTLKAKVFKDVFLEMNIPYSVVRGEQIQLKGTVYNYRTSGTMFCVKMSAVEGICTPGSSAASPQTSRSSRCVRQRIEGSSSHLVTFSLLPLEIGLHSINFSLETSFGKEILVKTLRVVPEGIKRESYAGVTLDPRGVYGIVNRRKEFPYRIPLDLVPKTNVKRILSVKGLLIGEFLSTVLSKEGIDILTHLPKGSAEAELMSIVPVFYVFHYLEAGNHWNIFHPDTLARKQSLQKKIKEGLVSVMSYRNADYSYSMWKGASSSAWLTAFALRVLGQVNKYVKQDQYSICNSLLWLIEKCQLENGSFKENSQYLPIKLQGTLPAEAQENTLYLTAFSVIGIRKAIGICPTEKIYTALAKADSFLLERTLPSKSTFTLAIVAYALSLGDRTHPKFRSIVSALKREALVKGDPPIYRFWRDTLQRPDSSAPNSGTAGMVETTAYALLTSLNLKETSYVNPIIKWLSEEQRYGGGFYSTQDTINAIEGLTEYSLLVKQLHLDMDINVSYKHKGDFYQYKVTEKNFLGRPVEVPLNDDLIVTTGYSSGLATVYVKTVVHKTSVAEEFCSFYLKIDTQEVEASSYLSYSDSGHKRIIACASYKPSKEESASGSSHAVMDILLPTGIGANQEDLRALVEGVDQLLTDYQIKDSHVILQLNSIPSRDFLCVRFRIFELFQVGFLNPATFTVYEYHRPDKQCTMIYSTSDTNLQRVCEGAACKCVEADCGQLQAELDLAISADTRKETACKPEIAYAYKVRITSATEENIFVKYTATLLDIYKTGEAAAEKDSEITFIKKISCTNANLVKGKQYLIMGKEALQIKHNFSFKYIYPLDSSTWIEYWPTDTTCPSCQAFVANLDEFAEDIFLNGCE

[4] = average of Exp 1 and Exp 2, read-out: Avg, nM IC50
[5] = competition with probe R3076 25 nM, C5 50 nM, 60 min at 25° C., experiment 1, read-out: IC50 nM, Exp 1
[6] = competition with probe R3076 25 nM, C5 50 nM, 60 min at 25° C., experiment 1, read-out: Ki nM, Exp 1
[7] = competition with probe R3076 25 nM, C5 50 nM, 60 min at 25° C., experiment 2, read-out: IC50 nM, Exp 2
[8] = competition with probe R3076 25 nM, C5 50 nM, 60 min at 25° C., experiment 2, read-out: Ki nM, Exp 2
[9] = average of Exp 1 and Exp 2, read-out: Avg, nM Ki

Row | Structure (SMILES) | IC50 (C5 [1]; [4]) [nM] | IC50 (C5 [1]; [5]) [nM] | Ki (C5 [1]; [6]) [nM] | IC50 (C5 [1]; [7]) [nM] | Ki (C5 [1]; [8]) [nM] | competition with labeled probe / affinity for C5 (in words) (C5 [1]; probe R3076 25 nM, C5 50 nM) | Ki (C5 [1]; probe R3076 25 nM, C5 50 nM, read-out: Ki) [nM] | IC50 (C5 [2]) [nM] | Ki (C5 [1]; [9]) [nM] | stability in human plasma (in words) ([3]; 37° C., up to 24 hrs) | half-life at 10 μM ([3]; pH 7.4, 37° C., 10 μM) [h] | Percent remaining at time (hrs): 0 hrs ([3]; pH 7.4, 37° C., 10 μM, 0 hrs) [%] | remaining at 2 h, 10 μM ([3]; plasma (collected in sodium heparin), pH 7.4, 37° C., 10 μM, 2 hrs, read-out: Percent remaining at time (hrs): 2 hrs) [%] | remaining at 4 h, 10 μM ([3]; plasma (collected in sodium heparin), pH 7.4, 37° C., 10 μM, 4 hrs, read-out: Percent remaining at time (hrs): 4 hrs) [%] | remaining at 12 h, 10 μM ([3]; plasma (collected in sodium heparin), pH 7.4, 37° C., 10 μM, 12 hrs, read-out: Percent remaining at time (hrs): 12 hrs) [%] | remaining at 24 h, 10 μM ([3]; plasma (collected in sodium heparin), pH 7.4, 37° C., 10 μM, 24 hrs, read-out: Percent remaining at time (hrs): 24 hrs) [%] | inhibitory activity in ex vivo hemolysis assays (in words) (rat C5) | binding to rat C5 (in words) (rat C5; in vivo)
1 | CCC[C@H](NC(C)=O)C(=O)N[C@@H](CS)C(=O)N[C@@H](Cc1ccc(O)cc1)C(=O)N[C@@H](CCC(=O)O)C(=O)N[C@@H](CC(N)=O)C(=O)N[C@H](C(=O)N[C@@H](Cc1ccc(O)cc1)C(=O)N[C@@H](Cc1c[nH]c2ncccc12)C(=O)N[C@@H](CCC(=O)O)C(=O)N[C@@H](Cc1ccc(O)cc1)C(=O)N1CCC[C@H]1C(=O)N[C@H](C(=O)N1CCC[C@H]1C(N)=O)c1ccccc1)C(C)(C)C [Compound R3003, Ac-Nvl-C-Y-E-N-Tbg-Y-azaTrp-E-Y-P-Phg-P-NH2] (Ac-[Nva]CYEN[Tle]Y[Trp(7-aza)]EYP[Phg]P-NH2) | 68.4 | 72.7 | 10.4 | 64.1 | 8.69 | most potent | 9.54 | 13.9 | – | – | – | – | – | – | – | – | – | –
2 | CCC[C@H](NC(C)=O)C(=O)N[C@H]1CSCc2cccc(c2)CSC[C@@H](C(=O)N[C@@H](CCC)C(=O)N2CCC[C@H]2C(N)=O)NC(=O)[C@H](Cc2c[nH]cn2)NC(=O)[C@H](CO)N(C)C(=O)[C@H](Cc2ccc(O)cc2)NC(=O)[C@H](CCC(=O)O)NC(=O)[C@H](Cc2c[nH]c3ncccc23)NC(=O)[C@H]([C@@H](C)O)NC(=O)[C@H](c2ccccc2)NC1=O [Compound R3011, [mXylyl(2,10)]Ac-Nvl-C-Phg-T-azaTrp-E-Y-(N-Me)S-H-C-Nvl-P-NH2] (Ac-[Nva]C[Phg]T[Trp(7-aza)]EY[NMeS]HC[Nva]P-NH2; linker 2-10 via mXylylene) | 278 | 295 | 73.2 | 261 | 86.9 | relatively strong affinity | – | 112 | 80 | – | – | – | – | – | – | – | – | –
3 | CCC[C@H](NC(=O)[C@@H]1CCCN1C(=O)[C@H](CCC)NC(=O)[C@@H]1CSCc2cccc(c2)CSC[C@H](NC(C)=O)C(=O)N[C@@H](c2ccccc2)C(=O)N[C@@H]([C@@H](C)O)C(=O)N[C@@H](Cc2c[nH]c3ncccc23)C(=O)N[C@@H](CCC(=O)O)C(=O)N[C@@H](Cc2ccc(O)cc2)C(=O)N(C)[C@@H](CO)C(=O)N[C@@H](Cc2c[nH]cn2)C(=O)N1)C(N)=O [Compound R3014, [mXylyl(1,9)]Ac-C-Phg-T-azaTrp-E-Y-(N-Me)S-H-C-Nvl-P-Nvl-NH2] (Ac-C[Phg]T[Trp(7-aza)]EY[NMeS]HC[Nva]P[Nva]-NH2; linker 1-9 via mXylylene) | 6820 | 6060 | 1400 | 7580 | 1590 | weak affinity | – | 1420 | 1490 | – | – | – | – | – | – | – | – | –
4 | CCC[C@H](NC(=O)[C@H](Cc1ccc(O)cc1)NC(=O)[C@H](CC(N)=O)NC(=O)[C@H](CCC)NC(=O)[C@H](CCC(=O)O)NC(=O)[C@@H](NC(=O)[C@H](Cc1c[nH]c2ncccc12)NC(=O)[C@@H](NC(=O)[C@H](CS)NC(=O)[C@H](Cc1ccc(O)cc1)NC(=O)[C@@H]1CCCN1C(=O)[C@H](Cc1ccc(O)cc1)NC(C)=O)c1ccccc1)C(C)(C)C)C(=O)N[C@@H](CCC(=O)O)C(N)=O [Compound R3023, Ac-Y-P-Y-C-Phg-azaTrp-Tbg-E-Nvl-N-Y-Nvl-E-NH2] (Ac-YPYC[Phg][Trp(7-aza)][Tle]E[Nva]NY[Nva]E-NH2) | > 1000 | > 1000 | > 1000 | > 1000 | > 1000 | no activity at the highest concentration tested; also recorded: not detected at the highest concentration tested; also recorded: no affinity | – | > 100000 | > 1000 | – | – | – | – | – | – | – | – | –
5 | CSCC[C@H](N)C(=O)N[C@H]1CSCc2cccc(c2)CSC[C@@H](C(=O)N[C@@H](CC(=O)O)C(=O)N[C@H](C(=O)N[C@@H](Cc2ccc(O)cc2)C(=O)N[C@@H](Cc2c[nH]c3ccccc23)C(=O)N[C@@H](CCC(=O)O)C(N)=O)C(C)C)NC(=O)[C@H](Cc2ccccc2)NC(=O)[C@H](CCCNC(=N)N)NC(=O)[C@H](CCC(=O)O)NC(=O)[C@H](C(C)C)NC1=O [Compound R3043, [mXylyl(2,7)]M-C-V-E-R-F-C-D-V-Y-W-E-NE2] (H-MCVERFCDVYWE-NH2; linker 2-7 via mXylylene) | 4230 | 4330 | 866 | 4120 | 882 | weak affinity | – | 934 | 874 | – | – | – | – | – | – | – | – | –
6 | CCC[C@H](NC(=O)[C@@H]1CSCc2ccc(cc2)CSC[C@H](NC(=O)[C@H](CCC)NC(C)=O)C(=O)N[C@@H](c2ccccc2)C(=O)N[C@@H]([C@@H](C)O)C(=O)N[C@@H](Cc2c[nH]c3ncccc23)C(=O)N[C@@H](CCC(=O)O)C(=O)N[C@@H](Cc2ccc(O)cc2)C(=O)N(C)[C@@H](CO)C(=O)N[C@@H](Cc2c[nH]cn2)C(=O)N1)C(N)=O [Compound R3050, [pXylyl(2,10)]Ac-Nvl-C-Phg-T-azaTrp-E-Y-(N-Me)S-H-C-Nvl-NH2] (Ac-[Nva]C[Phg]T[Trp(7-aza)]EY[NMeS]HC[Nva]-NH2; linker 2-10 via pXylylene) | 280 | 267 | 71.1 | 293 | 57.6 | relatively strong affinity | – | 42.9 | 64.3 | highly stable | > 24 | 100 | 109 | 100 | 88 | 98.1 | – | –
7 | CCC[C@H](NC(=O)[C@@H](NC(=O)[C@@H]1CCCN1C(=O)[C@H](Cc1ccc(O)cc1)NC(=O)[C@H](CCC(=O)O)NC(=O)[C@H](Cc1c[nH]c2ncccc12)NC(=O)[C@H](Cc1ccc(O)cc1)NC(=O)[C@@H](NC(=O)[C@H](CC(=O)O)N(C)C(=O)[C@@H]1CSCc2cccc(c2)CSC[C@H](NC(C)=O)C(=O)N[C@@H](C(C)C)C(=O)N[C@@H](CCC(=O)O)C(=O)N[C@@H](CCCNC(=N)N)C(=O)N[C@@H](Cc2ccccc2)C(=O)N1)C(C)(C)C)C1CCCCC1)C(N)=O [Compound R3172, [mXylyl(1,6)]Ac-C-V-E-R-F-C-(N-Me)D-Tbg-Y-azaTrp-E-Y-P-Chg-Nvl-NH2] | – | – | – | – | – | – | – | 12 | – | – | – | – | – | – | – | – | – | –
8 | CCC[C@H](NC(=O)[C@@H](NC(=O)[C@@H]1CCCN1C(=O)[C@H](Cc1ccc(O)cc1)NC(=O)[C@H](CCC(=O)O)NC(=O)[C@H](Cc1c[nH]c2ncccc12)NC(=O)[C@H](Cc1ccc(O)cc1)NC(=O)[C@@H](NC(=O)[C@H](CC(=O)O)NC(=O)[C@@H]1CSCc2cccc(c2)CSC[C@H](NC(C)=O)C(=O)N[C@@H](C(C)C)C(=O)N[C@@H](CCC(=O)O)C(=O)N[C@@H](CCCNC(=N)N)C(=O)N[C@@H](Cc2ccccc2)C(=O)N1)C(C)(C)C)C1CCCCC1)C(=O)O [Compound R3201, [mXylyl(1,6)]Ac-C-V-E-R-F-C-D-Tbg-Y-azaTrp-E-Y-P-Chg-Nvl] | – | – | – | – | – | – | – | – | – | – | – | – | – | – | – | – | very little inhibitory activity | do not bind
